Measured values from patent US20230117034A1, “PYRAZOLOTRIAZINES” (Bayer Aktiengesellschaft, priority 2019, published 2023).

Assays:
CDK12/CycK = CDK12/CycK (Homo sapiens, UniProt Q9NYV4); test: CDK12/CycK high ATP kinase assay (TR-FRET, 2 mM ATP); assay type: biochemical; details: 2 mM ATP (high ATP); median; read-out: CDK12/CyclinK, 2 mM ATP (high ATP), IC50-[mol/l] (median)
In short: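 Read-out is TR-FRET (Eu-anti-rabbit IgG, anti-phospho-c-Myc Ser62 antibody, streptavidin-XL665) after EDTA stop. Reaction ran 60 min at 22 °C using 1 µM biotin-peptide and high ATP (2 mM) with roughly 0.75 nM recombinant CDK12/CycK, after 15 min compound pre-binding; normalised emission ratios yield IC50.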

[1] = test system: MDA-MB-231, human breast cancer cells; test: Proliferation assay MDA-MB-231 (crystal violet, 4 days); assay type: cell-based; details: Homo sapiens, MDA-MB-231, 96 h, MDA-MB-231 cells, median, read-out: Prolif-MDA MB-231, IC50-[mol/l] (median)
In short: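 Crystal violet proliferation read-out after 4 days of compound exposure (0.01-10 µmol/L; solvent 0.1% DMSO). Extinction at 595 nm, set between zero-point (0%) and vehicle (100%), fitted with 4 parameters to give IC50.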

[2] = test system: BRCA1 mRNA expression in MDA-MB-231 cells; test: qRT-PCR assay: BRCA1 mRNA expression in MDA-MB-231; assay type: cell-based, human; details: Homo sapiens, MDA-MB-231, Inhibition of BRCA1 mRNA expression in MDA-MB-231 cells; median; read-out: RTqPCR-MDA-MB-231, IC50, BRCA1 (median)
In short: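 Human breast cancer cells, 200,000/well, were treated with test agents for 24 h without interruption after a 24 h settling period. Gene expression came from qPCR on cDNA made from 600 ng RNA, relative to GAPDH.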

Sequence of CDK12/CycK (Q9NYV4 with tags, fused parts or gaps): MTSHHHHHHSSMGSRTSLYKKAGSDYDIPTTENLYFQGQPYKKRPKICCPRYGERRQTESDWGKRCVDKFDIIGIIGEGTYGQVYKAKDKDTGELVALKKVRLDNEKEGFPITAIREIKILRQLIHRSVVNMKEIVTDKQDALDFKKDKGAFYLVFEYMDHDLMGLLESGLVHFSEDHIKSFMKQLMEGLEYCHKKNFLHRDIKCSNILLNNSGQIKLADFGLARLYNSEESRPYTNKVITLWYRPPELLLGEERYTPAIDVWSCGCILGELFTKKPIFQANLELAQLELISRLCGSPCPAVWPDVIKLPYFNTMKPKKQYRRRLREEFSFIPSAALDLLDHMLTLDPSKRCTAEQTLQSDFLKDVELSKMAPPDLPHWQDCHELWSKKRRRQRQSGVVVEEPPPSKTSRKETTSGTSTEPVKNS
Sequence of CDK12/CycK (O75909 1-300 partner limits assumed): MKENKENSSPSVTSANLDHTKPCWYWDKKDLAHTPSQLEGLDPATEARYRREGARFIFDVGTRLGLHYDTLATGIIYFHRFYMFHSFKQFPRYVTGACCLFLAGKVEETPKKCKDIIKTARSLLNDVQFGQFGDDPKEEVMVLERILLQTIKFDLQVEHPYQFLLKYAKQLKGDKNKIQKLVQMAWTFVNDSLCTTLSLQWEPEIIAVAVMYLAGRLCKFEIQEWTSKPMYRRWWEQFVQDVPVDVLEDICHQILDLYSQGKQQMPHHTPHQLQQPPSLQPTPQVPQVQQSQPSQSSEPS

Row | IC50 (CDK12/CycK) [µM] | IC50 [1] [nM] | IC50 [2] [nM] | SMILES
1 | 2.38 | 4.76 | 9.97 | CN(CC(C)(C)O)c1nc(NCc2nc3cc(F)c(F)cc3[nH]2)n2ncc(C3CC3)c2n1 [Example 319, 1-[(8-cyclopropyl-4-{[(5,6-difluoro-1H-benzimidazol-2-yl)methyl]amino}pyrazolo[1,5-a][1,3,5]triazin-2-yl)(methyl)amino]-2-methylpropan-2-ol]
2 | 0.169 | 7.18 | 5.63 | Fc1c(Cl)ccc2[nH]c(CNc3nc(N4CCOCC4)nc4c(C5CC5)cnn34)nc12 [Example 370, N-[(5-chloro-4-fluoro-1H-benzimidazol-2-yl)methyl]-8-cyclopropyl-2-(morpholin-4-yl)pyrazolo[1,5-a][1,3,5]triazin-4-amine]
3 | 0.142 | 3.78 | 1.8 | Fc1cc2nc(CNc3nc(N4CCOCC4)nc4c(C(F)(F)F)cnn34)[nH]c2cc1F [Example 333, N-[(5,6-difluoro-1H-benzimidazol-2-yl)methyl]-2-(morpholin-4-yl)-8-(trifluoromethyl)pyrazolo[1,5-a][1,3,5]triazin-4-amine]
4 | 3.48 |  | 165 | Cc1[nH]c(CNc2nc(N3CCOCC3)nc3c(Br)cnn23)nc1-c1ccccc1 [Example 27, 8-bromo-N-[(5-methyl-4-phenyl-1H-imidazol-2-yl)methyl]-2-(morpholin-4-yl)pyrazolo[1,5-a][1,3,5]triazin-4-amine]
5 | 4.84 | 173 |  | CC[C@H](CO)Nc1nc(NCc2nc3ccccc3[nH]2)n2ncc(Br)c2n1 [Example 368, (2R)-2-[(4-{[(1H-benzimidazol-2-yl)methyl]amino}-8-bromopyrazolo[1,5-a][1,3,5]triazin-2-yl)amino]butan-1-ol]
6 | > 20 | 102 |  | CN1CCN(c2nc(NCc3nc4c(OC(F)(F)F)cccc4[nH]3)n3ncc(Br)c3n2)CC1 [Example 376, 8-bromo-2-(4-methylpiperazin-1-yl)-N-{[4-(trifluoromethoxy)-1H-benzimidazol-2-yl]methyl}pyrazolo[1,5-a][1,3,5]triazin-4-amine]
7 | 5.85 | 118 |  | CN(c1nc(NCc2nc3ccccc3[nH]2)n2ncc(Br)c2n1)[C@H]1C[C@H](O)C1 [Example 365, trans-3-[(4-{[(1H-benzimidazol-2-yl)methyl]amino}-8-bromopyrazolo[1,5-a][1,3,5]triazin-2-yl)(methyl)amino]cyclobutan-1-ol]
8 | 5.09 | 116 |  | CN1CCN(c2nc(NCc3nc4cc(OC(F)(F)F)ccc4[nH]3)n3ncc(Br)c3n2)CC1 [Example 377, 8-bromo-2-(4-methylpiperazin-1-yl)-N-{[5-(trifluoromethoxy)-1H-benzimidazol-2-yl]methyl}pyrazolo[1,5-a][1,3,5]triazin-4-amine]
9 | 2.93 | 84.1 |  | CC[C@@H](CO)Nc1nc(NCc2nc3ccccc3[nH]2)n2ncc(Br)c2n1 [Example 367, (2S)-2-[(4-{[(1H-benzimidazol-2-yl)methyl]amino}-8-bromopyrazolo[1,5-a][1,3,5]triazin-2-yl)amino]butan-1-ol]
10 | 4.56 | 142 |  | FC(F)(F)Oc1cccc2[nH]c(CNc3nc(N4CCOCC4)nc4c(Br)cnn34)nc12 [Example 375, 8-bromo-2-(morpholin-4-yl)-N-{[4-(trifluoromethoxy)-1H-benzimidazol-2-yl]methyl}pyrazolo[1,5-a][1,3,5]triazin-4-amine]
11 | 0.44 | 96.4 |  | CN(CC(C)(C)O)c1nc(NCc2nc3cc(OC(F)(F)F)ccc3[nH]2)n2ncc(Br)c2n1 [Example 378, 1-{[8-bromo-4-({[5-(trifluoromethoxy)-1H-benzimidazol-2-yl]methyl}amino)pyrazolo[1,5-a][1,3,5]triazin-2-yl](methyl)amino}-2-methylpropan-2-ol]
12 | 3.21 |  | 74.4 | CCNc1nc(NCc2nc(-c3ccc(C)cc3)c[nH]2)n2ncc(Br)c2n1 [Example 26, 8-bromo-N^2-ethyl-N^4-{[4-(4-methylphenyl)-1H-imidazol-2-yl]methyl}pyrazolo[1,5-a][1,3,5]triazine-2,4-diamine]
13 | > 20 | 332 |  | CN1CCC(Oc2nc(NCc3nc4ccccc4[nH]3)n3ncc(Br)c3n2)CC1 [Example 389, N-[(1H-benzimidazol-2-yl)methyl]-8-bromo-2-[(1-methylpiperidin-4-yl)oxy]pyrazolo[1,5-a][1,3,5]triazin-4-amine]
14 | > 20 | 297 |  | CC[C@H](COC)Nc1nc(NCc2nc3ccccc3[nH]2)n2ncc(Br)c2n1 [Example 369, N4-[(1H-benzimidazol-2-yl)methyl]-8-bromo-N2-[(2R)-1-methoxybutan-2-yl]pyrazolo[1,5-a][1,3,5]triazine-2,4-diamine]
15 | 18.5 |  |  | Cc1ccnc2[nH]c(CNc3nc(N4CCN(C)CC4)nc4c(C(C)C)cnn34)nc12 [Example 32, N-[(7-methyl-3H-imidazo[4,5-b]pyridin-2-yl)methyl]-2-(4-methylpiperazin-1-yl)-8-(propan-2-yl)pyrazolo[1,5-a][1,3,5]triazin-4-amine]
16 | > 20 | 176 |  | CN1CCCN(c2nc(NCc3nc4ccccc4[nH]3)n3ncc(Br)c3n2)CC1 [Example 390, N-[(1H-benzimidazol-2-yl)methyl]-8-bromo-2-(4-methyl-1,4-diazepan-1-yl)pyrazolo[1,5-a][1,3,5]triazin-4-amine]
17 | 2.95 |  | 28.5 | CC(C)c1cnn2c(NCc3ncc(-c4ccccc4)[nH]3)nc(N3CCOCC3)nc12 [Example 30, 2-(morpholin-4-yl)-N-[(5-phenyl-1H-imidazol-2-yl)methyl]-8-(propan-2-yl)pyrazolo[1,5-a][1,3,5]triazin-4-amine]

Row | SMILES | IC50 (CDK12/CycK) [µM] | IC50 [1] [nM] | IC50 [2] [nM]
18 | FC(F)(F)c1ccc2[nH]c(CNc3nc(N4CC5CCC(C4)N5)nc4c(C5CC5)cnn34)nc2c1 [Example 327, 8-cyclopropyl-2-(3,8-diazabicyclo[3.2.1]octan-3-yl)-N-{[5-(trifluoromethyl)-1H-benzimidazol-2-yl]methyl}pyrazolo[1,5-a][1,3,5]triazin-4-amine] | 2.35 | 2.27 | 8.3
19 | Fc1cc2nc(CNc3nc(N4C[C@H]5CC[C@@H](C4)N5)nc4c(C5CC5)cnn34)[nH]c2cc1Cl [Example 328, N-[(6-chloro-5-fluoro-1H-benzimidazol-2-yl)methyl]-8-cyclopropyl-2-[(1R,5S)-3,8-diazabicyclo[3.2.1]octan-3-yl]pyrazolo[1,5-a][1,3,5]triazin-4-amine] | 1.66 | 1.04 | 2.78
20 | FC(F)(F)c1ccc2[nH]c(CNc3nc(N4CC5CCC(C4)N5)nc4c(Br)cnn34)nc2c1 [Example 354, 8-bromo-2-(3,8-diazabicyclo[3.2.1]octan-3-yl)-N-{[5-(trifluoromethyl)-1H-benzimidazol-2-yl]methyl}pyrazolo[1,5-a][1,3,5]triazin-4-amine] | 3.74 | 3.05 | < 100
21 | FC(F)(F)Oc1cccc2[nH]c(CNc3nc(N4C[C@H]5CC[C@@H](C4)N5)nc4c(Br)cnn34)nc12 [Example 381, 8-bromo-2-[(1R,5S)-3,8-diazabicyclo[3.2.1]octan-3-yl]-N-{[4-(trifluoromethoxy)-1H-benzimidazol-2-yl]methyl}pyrazolo[1,5-a][1,3,5]triazin-4-amine] | 5.91 | 43.5 | 
